Test systems include SK-MEL-5 melanoma; HCT-15 colon; KM12 colon; OVCAR-5 ovarian; MDA-MB-231 breast; DU-145 prostate; SK-MEL-2 melanoma; PC-3 prostate; HCC-2998 colon; T-47D breast.
What all share (assay): NCI-60 cell line screen, 48 h

Each structure is given as a SMILES string.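 Cultured in 96-well plates, cells were exposed to test compound for 48 hours across five concentrations. Abbreviation: GI50, concentration required for 50% inhibition of growth. TGI denotes the concentration required for complete inhibition of growth.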

For `CCCCC(=O)N/N=C/c1cc(I)cc(I)c1O`, the GI50 was 3.22 µM in the assay on SK-MEL-5 melanoma; 0.897 µM in the assay with HCT-15 colon; 3.74 µM in the assay with KM12 colon; 12.6 µM in the assay on OVCAR-5 ovarian; 2.73 µM with MDA-MB-231 breast; 4.24 µM with DU-145 prostate. Besides, the GI50 is 3.22 µM in the assay on SK-MEL-2 melanoma, 3.35 µM in the assay on PC-3 prostate and 11.1 µM with HCC-2998 colon. Besides, the TGI in the assay on SK-MEL-5 melanoma was 15.3 µM; in the assay with HCT-15 colon, above 100 µM; in the assay on KM12 colon it was 53.8 µM; in the assay on OVCAR-5 ovarian, above 100 µM; with MDA-MB-231 breast, 29.9 µM; in the assay with DU-145 prostate it was 31 µM. In addition, the TGI with SK-MEL-2 melanoma is 14.4 µM; with PC-3 prostate it was 20.9 µM; in the assay on HCC-2998 colon it was above 100 µM.
With `CN(C)CCNc1ccc([N+](=O)[O-])c2nc3ccccc3c(N)c12`, the TGI in the assay with SK-MEL-5 melanoma was 2.79 µM; in the assay with T-47D breast, 3.7 µM; with HCT-15 colon, 4.01 µM; in the assay with KM12 colon it was 1.75 µM; in the assay with OVCAR-5 ovarian, above 10 µM; in the assay with MDA-MB-231 breast, 6.89 µM. For the same compound, the TGI in the assay with DU-145 prostate was above 10 µM; in the assay with SK-MEL-2 melanoma, 3.53 µM; in the assay on PC-3 prostate it was 2.87 µM.
Consider `O=c1c2ccc3cccc4c(=O)cc(c5ccccc15)-c2c34`, for which the TGI in the assay with SK-MEL-5 melanoma, in the assay with HCT-15 colon, in the assay on KM12 colon, in the assay on OVCAR-5 ovarian, with SK-MEL-2 melanoma and with HCC-2998 colon was above 100 µM throughout.
As to `O=C1Nc2ccccc2C1Cc1ccccc1` (configuration not stated), the TGI in the assay on SK-MEL-5 melanoma, in the assay on T-47D breast, in the assay on HCT-15 colon, in the assay with KM12 colon, with OVCAR-5 ovarian and in the assay on DU-145 prostate was above 100 µM throughout. Moreover, the TGI in the assay with SK-MEL-2 melanoma, in the assay on PC-3 prostate and in the assay with HCC-2998 colon was above 100 µM in each case.
Consider `N=C(N)SCCc1cn2ccccc2n1`, for which the TGI in the assay with SK-MEL-5 melanoma, with HCT-15 colon, in the assay on KM12 colon, in the assay with OVCAR-5 ovarian, in the assay on SK-MEL-2 melanoma and with HCC-2998 colon was above 100 µM in each case.
In the case of `CC(C)C(=O)N[C@@H](C)C(=O)N(Cc1ccc2ccccc2c1)N=O`, the TGI in the assay on SK-MEL-5 melanoma, with HCT-15 colon, with OVCAR-5 ovarian, with SK-MEL-2 melanoma and with HCC-2998 colon was above 100 µM in each case.
As to `CC1(O)CC2C(CC1SCCO)C2(C)C` (configuration not stated), the TGI with SK-MEL-5 melanoma, with HCT-15 colon, in the assay on KM12 colon, with OVCAR-5 ovarian, in the assay on SK-MEL-2 melanoma and in the assay on HCC-2998 colon was above 100 µM each time.
Regarding `CC1=CC(C)(C)N=C2SC(c3ccc(Cl)cc3)=NN12`, the TGI in the assay on SK-MEL-5 melanoma was 33.9 µM; in the assay with HCT-15 colon, above 100 µM; with KM12 colon it was above 100 µM; in the assay on OVCAR-5 ovarian, 53.7 µM; in the assay with SK-MEL-2 melanoma it was above 100 µM; in the assay with HCC-2998 colon, above 100 µM.
For the compound `O=C(O)/C(=C/c1ccccc1[N+](=O)[O-])c1ccccc1`, the TGI in the assay with SK-MEL-5 melanoma, with HCT-15 colon, in the assay on KM12 colon, with OVCAR-5 ovarian, in the assay with SK-MEL-2 melanoma and with HCC-2998 colon was above 100 µM in each case.
On to `CCOC(=O)/N=C(\N)SCc1ccccc1`, for which the TGI in the assay on SK-MEL-5 melanoma, in the assay on HCT-15 colon, with KM12 colon, with OVCAR-5 ovarian, with SK-MEL-2 melanoma and with HCC-2998 colon was above 100 µM throughout.
Turning to `CCC[CH2][Sn]([CH2]CCC)([O]C(=O)c1cccc(F)c1)[O]C(=O)c1cccc(F)c1`, the GI50 with SK-MEL-5 melanoma was 1.39 µM; in the assay with HCT-15 colon, 1.16 µM; with KM12 colon, 1.29 µM; in the assay with OVCAR-5 ovarian it was 2.67 µM; in the assay with SK-MEL-2 melanoma, 0.851 µM; in the assay on HCC-2998 colon, 1.47 µM. Besides, the TGI with SK-MEL-5 melanoma was determined as 2.76 µM; with HCT-15 colon it was 3.45 µM; in the assay on KM12 colon, 2.79 µM; in the assay on OVCAR-5 ovarian it was 4.24 µM; in the assay with SK-MEL-2 melanoma it was 2.1 µM; in the assay with HCC-2998 colon it was 2.81 µM.
As to `O=c1ccccc2cccc(O)c12`, the TGI in the assay with SK-MEL-5 melanoma, with HCT-15 colon and with HCC-2998 colon was above 100 µM each time.
On to `CC(=O)OC12c3ccccc3C1CCCCCC21OCCCO1` (configuration not stated), for which the TGI with SK-MEL-5 melanoma, with HCT-15 colon, with KM12 colon, in the assay with OVCAR-5 ovarian, with SK-MEL-2 melanoma and in the assay with HCC-2998 colon was above 100 µM in each case.
On to `O=c1cc(Cl)nc[nH]1`, for which the TGI in the assay on SK-MEL-5 melanoma, with HCT-15 colon, in the assay on KM12 colon, in the assay on OVCAR-5 ovarian, with SK-MEL-2 melanoma and in the assay with HCC-2998 colon was above 100 µM each time.
Turning to `O=C1c2ccccc2C(=O)N1c1ccc(S(=O)(=O)Nc2ncccn2)cc1`, the GI50 in the assay on SK-MEL-5 melanoma, with HCT-15 colon, with KM12 colon, with OVCAR-5 ovarian, with MDA-MB-231 breast and in the assay on DU-145 prostate was above 100 µM in each case. Moreover, the values for the GI50 in the assay with SK-MEL-2 melanoma, in the assay on PC-3 prostate and in the assay on HCC-2998 colon were above 100 µM, above 100 µM and 22.7 µM, respectively. The TGI with SK-MEL-5 melanoma, in the assay on HCT-15 colon, with KM12 colon, with OVCAR-5 ovarian, in the assay with MDA-MB-231 breast and with DU-145 prostate was above 100 µM in each case. Further, the TGI with SK-MEL-2 melanoma, with PC-3 prostate and in the assay on HCC-2998 colon was above 100 µM each time.
Consider `Cc1cc(NS(=O)(=O)c2ccc(NC(=O)c3cccc4c(N)c5ccccc5nc34)cc2)no1`, for which the TGI with HCT-15 colon is above 100 µM; in the assay with KM12 colon, 58.3 µM; with OVCAR-5 ovarian it was above 100 µM; in the assay with SK-MEL-2 melanoma, 37.2 µM.
In the case of `N=C(c1ccccc1)N(O)C1CCCCC1`, the TGI in the assay on SK-MEL-5 melanoma, with KM12 colon, with OVCAR-5 ovarian, in the assay on SK-MEL-2 melanoma and with HCC-2998 colon was above 100 µM throughout.
Turning to `COc1ccc2c3c1C(=O)CCC3CO2` (configuration not stated), the TGI with SK-MEL-5 melanoma, with HCT-15 colon, in the assay on KM12 colon, in the assay on OVCAR-5 ovarian, with SK-MEL-2 melanoma and in the assay with HCC-2998 colon was above 100 µM throughout.

Values taken from PubChem BioAssay (NCI).
